# Source: US20250084080A1, “CRYSTALLINE AND SALT FORMS OF AN NLRP3 INHIBITOR” (BioAge Labs, Inc., priority 2023, published 2025)
# Experiments:
# Format in all cases: physicochemical
# [1] = Bulk stability (solid state, 1 week; HPLC, XRPD, IC, color); details: sodium salt
# [2] = Solubility at 37° C. in buffers and biorelevant media, XRPD of residual solid; details: for solubility at 2 h / solubility at 24 h: thermodynamic from solid
# Summary of the method: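 Solids equivalent to 10 mg anhydrous free form were stirred in 5 mL of each medium (pH 1.2 HCl, pH 4.5 acetate, pH 6.8 phosphate, water, FaSSGF, FaSSIF-v1, FeSSIF-v1, HPMC/Pluronic in acetate) at 37 °C, 400 rpm. Sampled at 2 h and 24 h; supernatant analyzed by HPLC plus pH, 24 h residual solid by XRPD.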
# [3] = Bulk stability (solid state, 1 week; HPLC, XRPD, IC, color); parameters: key to CL (color): A: no change of color; B: slight discoloration; C: medium discoloration; D: strong discoloration
# Experimental: Bulk stability of free form Pattern B was evaluated at 25° C./92.5% RH in an open container, at 40° C./75% RH in an open container and at 60° C. in a tight container over 1 week.
# [4] = Hygroscopicity by dynamic vapor sorption (DVS) at 25° C.; details: for Desorp. (%) / Sorp. (%): DVS 25° C.
# Summary of the method: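 About 5–10 mg sample was cycled 40-0-95-0-40% RH in 10% steps at 25 °C with water vapour. Equilibrium criterion was 0.002 %/min dm/dt, with a minimum 60 min stability duration and a maximum 360 min per stage.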
# [5] = aqueous buffer, pH 4.5 acetate buffer (50 mM), 37° C.
# [6] = aqueous buffer, pH 6.8 phosphate buffer (50 mM), 37° C.
# [7] = aqueous with cosolvent or surfactant or cyclodextrin, 2% HPMC + 1% Pluronic F68 in pH 4.5 acetate buffer (50 mM), 37° C.
# [8] = fassgf or other biorelevant, FaSSGF, pH 1.6, 37° C.
# [9] = simulated gastric fluid, pH 1.2 HCl buffer, 37° C.
# [10] = 25° C./92.5% RH open, 40° C./75% RH open, 60° C. tight container
# [11] = Solid state, 25° C./92.5% RH, open
# [12] = Solid state, 40° C./75% RH, open
compound,measurement,setting,value
"CCOc1cc(C(=O)N(C)Cc2cnc(CO)c3cn[nH]c23)ccc1-c1cc(F)cc(F)c1.[Na] [Sodium salt Pattern A, 2-ethoxy-3′,5′-difluoro-N-((4-(hydroxymethyl)-1H-pyrazolo[4,3-c]pyridin-7-yl)methyl)-N-methyl-[1,1′-biphenyl]-4-carboxamide sodium salt]",Bulk (XRPD),"[1]; 25° C./92.5% RH, open",dissociated to free form Pattern A
same,Bulk (XRPD),"[1]; 60° C., closed",No form change
same,pH of supernatant at 24 h,"[2]; 2% HPMC + 1% Pluronic F68 in pH 4.5 acetate buffer (50 mM), 37° C.",(4.7)
same,Solubility compared with the free form Pattern A,[2]; 2% HPMC+1% Pluronic F68 in acetate buffer (pH 4.5),obviously improved solubility
same,pH of supernatant at 24 h,"[2]; FaSSGF, pH 1.6, 37° C.",(1.8)
same,pH of supernatant at 24 h,"[2]; FaSSIF-v1, pH 6.5, 37° C.",(6.7)
same,pH of supernatant at 24 h,"[2]; FeSSIF-v1, pH 5.0, 37° C.",(5.1)
same,pH of supernatant at 24 h,"[2]; Water, 37° C.",(11.1)
same,solubility at 2 h,[2]; [5],9.3 µg/mL
same,solubility at 24 h,[2]; [5],7.4 µg/mL
same,solubility at 2 h,[2]; [6],3.1 µg/mL
same,solubility at 24 h,[2]; [6],2.8 µg/mL
same,solubility at 2 h,[2]; [7],273 µg/mL
same,solubility at 24 h,[2]; [7],260 µg/mL
same,solubility at 2 h,[2]; [8],664 µg/mL
same,solubility at 24 h,[2]; [8],630 µg/mL
same,pH of supernatant at 24 h,"[2]; pH 1.2 HCl buffer, 37° C.",(1.3)
same,pH of supernatant at 24 h,"[2]; pH 4.5 acetate buffer (50 mM), 37° C.",(4.6)
same,pH of supernatant at 24 h,"[2]; pH 6.8 phosphate buffer (50 mM), 37° C.",(7.0)
same,solubility at 2 h,[2]; [9],608 µg/mL
same,solubility at 24 h,[2]; [9],511 µg/mL
same,solubility at 2 h,"[2]; FaSSIF-v1, pH 6.5, 37° C.",10.2 µg/mL
same,solubility at 24 h,"[2]; FaSSIF-v1, pH 6.5, 37° C.",13.1 µg/mL
same,solubility at 2 h,"[2]; FeSSIF-v1, pH 5.0, 37° C.",144 µg/mL
same,solubility at 24 h,"[2]; FeSSIF-v1, pH 5.0, 37° C.",149 µg/mL
same,solubility at 2 h,"[2]; Water, 37° C.",7.7 µg/mL
same,solubility at 24 h,"[2]; Water, 37° C.",8.2 µg/mL
same,"Bulk stability, chemical and physical",[3]; [10],chemically stable but physically unstable
same,Degradation by HPLC,[3]; [10],no obvious degradation
same,Bulk (HPLC) Purity,[3]; [11],98.7%
same,CL (color),[3]; [11],A
same,Bulk (HPLC) Purity,[3]; [12],98.7%
same,CL (color),[3]; [12],A
same,Bulk (XRPD),"[3]; Solid state, 40° C./75% RH, open, sodium salt",dissociated to free form Pattern A
same,Bulk (HPLC) Purity,"[3]; Solid state, 60° C., closed",98.7%
same,CL (color),"[3]; Solid state, 60° C., closed",A
same,Desorp. (%),"[4]; 0% RH, 1st desorption",0.05%
same,Sorp. (%),"[4]; 0% RH, 1st sorption",0.05%
same,Desorp. (%),"[4]; 0% RH, 2nd desorption",0.00%
same,Sorp. (%),"[4]; 0% RH, 2nd sorption",0.00%
same,Desorp. (%),"[4]; 10% RH, 1st desorption",0.20%
same,Sorp. (%),"[4]; 10% RH, 1st sorption",0.17%
same,Desorp. (%),"[4]; 10% RH, 2nd desorption",0.18%
same,Sorp. (%),"[4]; 10% RH, 2nd sorption",0.14%
same,Desorp. (%),"[4]; 20% RH, 1st desorption",0.28%
same,Sorp. (%),"[4]; 20% RH, 1st sorption",0.23%
same,Desorp. (%),"[4]; 20% RH, 2nd desorption",0.25%
same,Sorp. (%),"[4]; 20% RH, 2nd sorption",0.21%
same,Desorp. (%),"[4]; 30% RH, 1st desorption",0.35%
same,Sorp. (%),"[4]; 30% RH, 1st sorption",0.30%
same,Desorp. (%),"[4]; 30% RH, 2nd desorption",0.33%
same,Sorp. (%),"[4]; 30% RH, 2nd sorption",0.28%
same,Desorp. (%),"[4]; 40% RH, 1st desorption",0.45%
same,Sorp. (%),"[4]; 40% RH, 1st sorption",0.38%
same,Desorp. (%),"[4]; 40% RH, 2nd desorption",0.94%
same,Sorp. (%),"[4]; 40% RH, 2nd sorption",0.38%
same,Sorp. (%),"[4]; 50% RH, 1st sorption",0.49%
same,Desorp. (%),"[4]; 50% RH, 2nd desorption",1.69%
same,Sorp. (%),"[4]; 60% RH, 1st sorption",0.94%
same,Desorp. (%),"[4]; 60% RH, 2nd desorption",2.23%
same,Sorp. (%),"[4]; 70% RH, 1st sorption",1.87%
same,Desorp. (%),"[4]; 70% RH, 2nd desorption",2.55%
same,Sorp. (%),"[4]; 80% RH, 1st sorption",2.71%
same,Desorp. (%),"[4]; 80% RH, 2nd desorption",3.05%
same,Sorp. (%),"[4]; 90% RH, 1st sorption",4.13%
same,Desorp. (%),"[4]; 90% RH, 2nd desorption",4.35%
same,Sorp. (%),"[4]; 95% RH, 1st sorption",6.60%
same,Desorp. (%),"[4]; 95% RH, 2nd desorption",6.60%
same,XRPD after DVS test,"[4]; DVS at 25° C., sodium salt",No form change
